# Source: ChEMBL document CHEMBL1150217, “Molecular structure and activity toward DNA of baicalein, a flavone constituent of the Asian herbal medicine "Sho-saiko-to"” (J Nat Prod, 2001)
# Active and inactive are the calls of the source. No cut-off for these calls is given here.
# Legend:
# [1] = test system: Human immunodeficiency virus; assay: Inhibition of HIV integrase
# Calf thymus DNA = assay: Binding affinity to calf thymus DNA assessed as intercalation by agarose gel electrophoresis; type: nucleic-acid assay; conditions: Bos taurus
structure (smiles),measurement,setting,value
O=c1cc(-c2ccccc2)oc2cc(O)c(O)c(O)c12,Activity,[1],Active
same,Activity,Calf thymus DNA,Active
